Laboratory results reported in US20180028553A1, “USE OF STING AGONIST AS CANCER TREATMENT” (The University of Chicago, priority 2013, published 2018).

What was measured:
hSTING^REF = biological target: T1, hSTING^REF (Homo sapiens, UniProt Q86WV6); test: IFN-β luciferase reporter assay in HEK 293T cells expressing hSTING REF; assay type: cell-based; conditions: 10 μM CDN, 6 hours
T1 construct: expressing each of the full length hSTING variants; expressed in transfected cells; host or cells: HEK 293T (deficient in endogenous STING), MSCV2.2 retroviral transduction
Description: (§1) Luciferase Assay. […] After 20 min, stimulation mixtures were removed and normal media was added. After a total of 6 hours, cell lysates were prepared and reporter gene activity measured using the Dual Luciferase Assay System (Promega) on a Spectramax M3 luminometer.

[1] = test system: STING pathway (TBK1, IRF3 phosphorylation); test: Western blot of pTBK1 and pIRF3 in macrophages and BM-DCs after STING agonist; assay type: cell-based, mouse; conditions: WT macrophages; DMXAA 50 μg/ml or ML RR-S2 CDA 50 μM
Description: DMXAA for the same time-points. Proteins were extracted with Triton-X buffer (150 mM sodium chloride, 50 mM Tris, 1% Triton-X, pH 8.0) with proteinase inhibitors (Thermo scientific) and phosphatase inhibitors (Sigma). 30 μg of protein was electrophoresed in 10% SDS-PAGE gels and transferred onto Immobilon-FL membranes (Millipore). Blots were incubated with antibodies specific for phosphorylated TBK1 (Ser172), phosphorylated IRF3 (Ser396), total TBK1, STING and GAPDH (Cell Signaling) or total IRF3 (Invitrogen). Proteins from HEK 293T lines stably expressing STING were extracted with M-PER (Thermo Scientific). 6 μg of protein was loaded onto a 4-12% MES NuPAGE gel (Life Technologies), transferred to nitrocellulose, and probed with anti-HA antibody (Santa Cruz). Anti-rabbit IRDye 680RD label secondary antibody was used for visualization of bands with the Odyssey Imaging system (LI-COR).

B16.F10 tumors = test: Intratumoral treatment of established B16.F10 tumors; assay type: in vivo, mouse; conditions: for injection site reactogenicity: three IT injections; for effect on tumor growth: WT C57BL/6 mice, three IT injections over a one-week period
Description: (§2) In vivo tumor experiments. 10^6 of B16-SIY tumor cells, 5×10^4 B16.F10 tumor cells, 10^5 4T1 and CT26, or 10^6 other tumor cells were injected s.c. in 100 μl DPBS or HBSS on the right flank of mice. Following tumor implantation, mice were randomized into treatment groups. […] Measurements of tumors were performed twice per week using calipers, and the tumor volume was calculated with the formula: V=(length×width^2)/2. In some experiments, tumor-free survivors were rechallenged with tumor cells on the opposite flank several weeks after the injection of the primary tumor. Naïve mice were used as controls. For the contralateral experiments, mice were implanted on both flanks and only one tumor was treated. For the B16 melanoma lung metastasis experiments, mice were implanted on the flank with 5×10^4 cells B16.F10 on day 0, and then injected intravenously with 1×10^5 cells on day 7. Lungs were harvested on day 28. Administration of compounds, measurements of tumors and counting of lung tumors were performed in a blinded fashion.

4T-1 tumors = test: Intratumoral treatment of 4T-1 tumors; assay type: in vivo, mouse
Description: as §2

CT26 colon carcinoma = test: Intratumoral treatment of CT26 colon carcinoma; assay type: in vivo, mouse
Description: as §2

B16.F10 lung metastases = test: B16 melanoma lung metastasis experiment; assay type: in vivo, mouse; conditions: flank tumor treated IT, ML RR-S2 CDA 50 μg versus DMXAA 150 μg
Description: as §2

[2] = test system: CT26 rejection antigen AH1; test: IFN-γ ELISPOT against AH1 in CT26-bearing mice; assay type: in vivo, mouse; conditions: 21 days post-implantation
Description: IFN-γ ELISPOT and SIY-pentamer staining. […] […] Spots were developed using the BD mouse IFN-γ kit according to the manufacturer's instructions and the number of spots was measured using an Immunospot Series 3 Analyzer and analyzed using ImmunoSpot software (Cellular Technology Ltd). For SIY-pentamer staining, splenocytes were preincubated for 15 min with anti-CD16/32 monoclonal antibody (93) to block potential nonspecific binding, and labeled with PE-MHC class I pentamer (Proimmune) consisting of murine H-2K^b complexed to […] (SIY) peptide, anti-TCRβ-AF700 (H57-597), anti-CD8-Pacific Blue (53-6.7), anti-CD4-Pacific Orange (RM4-5) (all antibodies from BioLegend) and the Fixable Viability Dye eFluor 450 (eBioscience). Stained cells were analyzed using LSR II cytometer with FACSDiva software (BD). Data analysis was conducted with FlowJo software (Tree Star).

[3] = test system: five hSTING alleles (WT, REF, HAQ, AQ and Q); test: IFN-β luciferase reporter assay in HEK 293T cells expressing hSTING variants; assay type: cell-based, human; conditions: 10 μM CDN, 6 hours
Description: as §1

[4] = test system: murine bone marrow macrophages (BMMs); test: qRT-PCR of IFN-β and cytokines in bone marrow macrophages stimulated with CDNs; assay type: cell-based, mouse; conditions: WT C57BL/6 BMMs, 5 μM, 6 hours; compared to ML-cGAMP, poly I:C and LPS on a molar equivalent basis
Description: WT BMM were stimulated with CDN at 5 μM in HBSS with the addition of Effectene (Qiagen) transfection reagent (per kit protocol). […] After a 6 hr incubation, cells were harvested and assessed by real-time qRT-PCR for gene expression of IFN-β1, MCP-1, TNF-α) and IL-6 using the PrimePCR RNA purification and cDNA analysis system, and run on the CFX96 gene cycler (BioRad).

[5] = BALB/c mice, three IT doses of 50 μg
[6] = bilateral tumors, IT injection into one tumor
[7] = mice cured of their primary tumor

T1 sequence (Q86WV6 whole entry): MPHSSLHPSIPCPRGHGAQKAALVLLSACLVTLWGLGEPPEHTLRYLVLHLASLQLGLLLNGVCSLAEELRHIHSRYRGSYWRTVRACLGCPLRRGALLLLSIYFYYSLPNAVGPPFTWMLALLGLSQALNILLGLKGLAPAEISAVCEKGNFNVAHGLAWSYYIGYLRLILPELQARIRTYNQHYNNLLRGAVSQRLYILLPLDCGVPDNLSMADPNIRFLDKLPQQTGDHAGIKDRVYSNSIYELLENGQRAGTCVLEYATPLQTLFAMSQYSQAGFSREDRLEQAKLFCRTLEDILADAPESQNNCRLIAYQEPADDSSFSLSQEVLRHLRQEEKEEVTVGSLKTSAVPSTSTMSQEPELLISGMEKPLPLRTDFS

**Q.** How did the IFN-β reporter responsiveness (hSTING^REF) turn out when `Nc1ncnc2c1ncn2[C@@H]1O[C@@H]2COP(=O)(O)O[C@H]3[C@@H](O)[C@H](n4cnc5c(N)ncnc54)O[C@@H]3COP(=O)(O)O[C@H]2[C@H]1O` [CDA] was run?
**A.** responded poorly

**Q.** Which IFN-β reporter responsiveness (hSTING^REF) does the source give for `Nc1nc2c(ncn2[C@@H]2O[C@@H]3COP(=O)(O)O[C@H]4[C@@H](O)[C@H](n5cnc6c(=O)[nH]c(N)nc65)O[C@@H]4COP(=O)(O)O[C@H]3[C@H]2O)c(=O)[nH]1` [CDG] here?
**A.** responded poorly

**Q.** Which results are given for `Nc1ncnc2c1ncn2[C@@H]1O[C@@H]2COP(O)(=S)O[C@@H]3C(O)[C@@H](COP(O)(=S)O[C@H]2[C@H]1O)O[C@H]3n1cnc2c(N)ncnc21` (stereo partly shown) [ML RR-S2 CDA, dithio-(Rp, Rp)-[cyclic[A(2′,5′)pA(3′,5′)p]]]?
**A.** phosphorylation of TBK1 and IRF3 [1]: induce phosphorylation of TBK1 and IRF3; potency compared to CpG-based TLR9 agonists and multiple other TLR agonists (B16.F10 tumors; given IT at the same doses (50 μg)): significantly increased potency; injection site reactogenicity (B16.F10 tumors): no injection site reactogenicity; tumor regression (4T-1 tumors; [5]): significant and durable tumor regression; regression of the contralateral untreated tumor (4T-1 tumors; [6]): significant regression of the contralateral untreated tumor; resistance to re-challenge (4T-1 tumors; [7]): completely resistant to re-challenge; tumor regression (CT26 colon carcinoma; [5]): significant and durable tumor regression; regression of the contralateral untreated tumor (CT26 colon carcinoma; [6]): significant regression of the contralateral untreated tumor; resistance to re-challenge (CT26 colon carcinoma; [7]): completely resistant to re-challenge; inhibition of growth of distant lung metastases (B16.F10 lung metastases): more significant inhibition of growth of distant lung metastases than DMXAA; immune responses against AH1 (IFN-γ ELISPOT) [2]: improved immune responses; IFN-β reporter activation [3]: potently activated all five hSTING alleles; expression of pro-inflammatory cytokines (IFN-β) [4]: highest expression of pro-inflammatory cytokines

**Q.** With `Nc1nc2c(ncn2[C@@H]2O[C@@H]3CO[P@@](=O)(S)O[C@@H]4[C@H](O)[C@@H](CO[P@@](=O)(S)O[C@H]3[C@H]2O)O[C@H]4n2cnc3c(=O)[nH]c(N)nc32)c(=O)[nH]1` [ML RR-S2 CDG] as the compound, how does the “efficacy at lower dose levels” value (B16.F10 tumors; lower dose levels) read?
**A.** not efficacious

**Q.** And the therapeutic index (B16.F10 tumors; mouse, in vivo)?
**A.** narrow therapeutic index

**Q.** And the injection site reactogenicity (B16.F10 tumors)?
**A.** reactogenic

**Q.** And the IFN-β reporter activation [3]?
**A.** potently activated all five hSTING alleles

**Q.** And the “expression of pro-inflammatory cytokines (IFN-β)” value [4]?
**A.** highest expression of pro-inflammatory cytokines

**Q.** How did the “effect on tumor growth” value (B16.F10 tumors) turn out when `Nc1ncnc2c1ncn2C1OC2COP(=O)(O)OC3C(O)C(COP(=O)(O)OC2C1O)OC3n1cnc2c(N)ncnc21` (stereo not shown) [ML-CDA] was run?
**A.** modest effects on tumor growth

**Q.** With `Nc1nc2c(ncn2C2OC3COP(=O)(O)OC4C(O)C(COP(=O)(O)OC3C2O)OC4n2cnc3c(=O)[nH]c(N)nc32)c(=O)[nH]1` (stereo not shown) [ML-CDG] as the compound, how does the “effect on tumor growth” value (B16.F10 tumors) read?
**A.** modest effects on tumor growth
